Measured values taken from BindingDB's records for patent WO2022103411 (Genentech, 2022).

Experiments:
[1] = target: T1, von Hippel-Lindau disease tumor suppressor (Homo sapiens, UniProt P40337); experiment: VHL HEK-293 BRET Assay
Description: The VHL NanoBRET Target Engagement Assay analyzes the apparent affinity of test compounds for VHL in cells by competitive displacement of a VHL NanoBRET tracer reversibly bound to a NanoLuc VHL fusion protein stably expressed in the cells. […] 50 nL of control compound (lOmM; parental unlabeled VHL antagonist; see structure below) and 50 nL of DMSO (negative control) were dispensed into the appropriate control wells. DMSO was backfilled to a final volume of 50 nL as required. […] Max Signal control wells consisted of DMSO only treated wells. Minimum Signal control wells contained of 10 uM parental unlabeled VHL antagonist (control compound - see structure below). […] Background Signal control wells were prepared without tracer for background correction steps. […] The raw BRET ratio values were calculated by dividing the acceptor emission value (610 nm) by the donor emission value (460nm) for each sample. To correct for background, the BRET ratio in the absence of tracer (average of no-tracer control samples) was subtracted from the BRET ratio of each sample. Raw BRET units were converted to milliBRET units (mBU) by multiplying each raw BRET value by 1,000. The normalized NanoBRET signal was calculated relative to the Max Signal control wells (DMSO treated control wells) and the Minimum Signal control wells. Percentage inhibition was calculated relative to the Minimum Signal control and Maximum Signal control wells. IC50 values were derived by four parameter curve fitting using the Robust method.

[2] = target: T1, von Hippel-Lindau disease tumor suppressor; experiment: Fluorescence Polarization (FP) VHL Binding Assay
Description: The binding of test compounds to the VHL Elongin B/C complex was measured using a fluorescence polarization tracer competition assay. […] A VHL fluorescence polarization probe consisted of a VHL ligand coupled to carboxytetramethylrhodamine (TAMRA); (2S,4R)-N-(2-(2-(3',6'-bis(dimethylamino)-3-oxo-3H-spiro[isobenzofuran-l,9'-xanthene]-5-carboxamido)ethoxy)-4-(4-methylthiazol-5-yl)benzyl)-4-hydroxy-l-((R)-3-methyl-2-(3-methylisoxazol-5-yl)butanoyl)pyrrolidine-2-carboxamide. […] DMSO was dispensed into wells designated for “VHL control” (without compound) wells. The “Assay Buffer” consisted of 50 mM Tris pH 8.0, 120 mM NaCl, 0.005% Nonidet P-40, and 1% DMSO (v/v). […] Assay Buffer was also dispensed into “no VHL control” wells using the same method. […] “Post-assay” fluorescence polarization measurements were made as described for the “pre-assay” fluorescence measurement. Fluorescence polarization was calculated for each sample; taking into account the “pre-assay” fluorescence measurements and subtracting the fluorescence signal of the compound/VHL only (“pre-assay”) measurements from the “post-assay” fluorescence polarization measurements, for each plane of polarization. The data were analyzed using Genedata Screener software and normalized to the “no VHL control” and “VHL control” (without compound). IC50 values were calculated using a four parameter curve fit (Robust method).

T1 sequence (P40337 whole entry): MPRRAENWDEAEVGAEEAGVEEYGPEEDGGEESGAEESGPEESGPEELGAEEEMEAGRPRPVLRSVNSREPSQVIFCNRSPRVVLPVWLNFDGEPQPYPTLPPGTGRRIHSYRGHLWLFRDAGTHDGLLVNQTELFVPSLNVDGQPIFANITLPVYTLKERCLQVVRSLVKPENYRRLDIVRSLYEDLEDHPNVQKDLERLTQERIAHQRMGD

IC50 [1] [nM]	IC50 [2] [nM]	SMILES
310		Cc1ncsc1-c1ccc(CNC(=O)C2C[C@H](O)CN2C(=O)[C@@H](n2cc(C3(c4cn([C@H](C(=O)N5C[C@H](O)C[C@H]5C(=O)NCc5ccc(-c6scnc6C)cc5)C(C)(C)C)nn4)CC3)nn2)C(C)(C)C)cc1 (stereo not given in full) [WO2022103411, Compound 31]
6250		COC(=O)c1nnn([C@H](C(=O)N2C[C@H](O)C[C@H]2C(=O)N[C@H](Cc2ccc(-c3ccccc3)cc2)C(N)=O)C(C)C)c1C [WO2022103411, Compound 34]
1620		COC(=O)c1nnn([C@@H](C(=O)N2C[C@H](O)C[C@H]2C(=O)N[C@H](Cc2ccc(-c3ccccc3)cc2)C(N)=O)C(C)C)c1C [WO2022103411, Compound 35]
300		CC(C)[C@@H](C(=O)N1C[C@H](O)C[C@H]1C(=O)N[C@H](Cc1ccc(-c2ccccc2)cc1)C(N)=O)n1nnc2ccccc21 [WO2022103411, Compound 38]
< 5		Cc1ncsc1-c1ccc2c(c1)CCCC[C@@H]2NC(=O)[C@@H]1C[C@@H](O)CN1C(=O)[C@@H](n1cc(C2CC2)nn1)C(C)(C)C [WO2022103411, Compound 52]
200		Cc1ncsc1-c1ccc2c(c1)CCCC[C@H]2NC(=O)[C@@H]1C[C@@H](O)CN1C(=O)[C@@H](n1cc(C2CC2)nn1)C(C)(C)C [WO2022103411, Compound 53]
150	150	CC(C)(C)[C@@H](C(=O)N1C[C@H](O)CC1C(=O)N[C@H](Cc1ccc(-c2ccccc2)cc1)C(N)=O)n1cc(C2CC2)nn1 (stereo not given in full) [WO2022103411, Example S3]
190		NC(=O)[C@@H](Cc1ccc(-c2ccccc2)cc1)NC(=O)C1C[C@@H](O)CN1C(=O)[C@H](C1CCC1)n1cc(C2CC2)nn1 (stereo not given in full) [WO2022103411, Example S4]
130		CCC(C)[C@@H](C(=O)N1C[C@H](O)CC1C(=O)N[C@H](Cc1ccc(-c2ccccc2)cc1)C(N)=O)n1cc(C2CC2)nn1 (stereo not given in full) [WO2022103411, Example S5]
100		CCC(C)(C)[C@@H](C(=O)N1C[C@H](O)CC1C(=O)N[C@H](Cc1ccc(-c2ccccc2)cc1)C(N)=O)n1cc(C2CC2)nn1 (stereo not given in full) [WO2022103411, Example S6]
110		C=CC(C)(C)[C@@H](C(=O)N1C[C@H](O)CC1C(=O)N[C@H](Cc1ccc(-c2ccccc2)cc1)C(N)=O)n1cc(C2CC2)nn1 (stereo not given in full) [WO2022103411, Example S7]
20700	80	CC(=O)NCCOCc1cn([C@H](C(=O)N2C[C@H](O)CC2C(=O)N[C@H](Cc2ccc(-c3ccccc3)cc2)C(N)=O)C(C)(C)C)nn1 (stereo not given in full) [WO2022103411, Example S14]
< 5		Cc1ncsc1-c1ccc([C@H](C)NC(=O)C2C[C@@H](O)CN2C(=O)[C@H](C2C3CC4CC(C3)CC2C4)n2cc(C3CC3)nn2)cc1 (stereo not given in full) [WO2022103411, Example S20]
< 5		CCC(C)(C)[C@@H](C(=O)N1C[C@H](O)C[C@H]1C(=O)N[C@@H](C)c1ccc(-c2scnc2C)cc1)n1cc(C2CC2)nn1 [WO2022103411, Example S21]
20		Cc1ncsc1-c1ccc(C(C)NC(=O)C2C[C@@H](O)CN2C(=O)[C@H](C2C3CC4CC(C3)CC2C4)n2cc(C3CC3)nn2)c(Cl)c1 (stereo not given in full) [WO2022103411, Example S23]
10		Cc1ncsc1-c1ccc(CNC(=O)[C@@H]2C[C@@H](O)CN2C(=O)[C@@H](n2cc(C3CC3)nn2)C(C)(C)C)cc1 [WO2022103411, Example S24]
< 5		Cc1ncsc1-c1ccc(CNC(=O)[C@@H]2C[C@@H](O)CN2C(=O)[C@H](C2CCCCC2)n2cc(C3CC3)nn2)cc1 [WO2022103411, Example S25]
20		Cc1ncsc1-c1ccc(CNC(=O)[C@@H]2C[C@@H](O)CN2C(=O)[C@@H](n2cc(Cc3ccccc3)nn2)C(C)(C)C)cc1 [WO2022103411, Example S27]
